Results from PMC8534029 (Cells, 2021).

Target: T1, human DOR (T7-tagged, HEK293 cells) (Homo sapiens, UniProt P41143)
T1 construct: gene OPRD1
Assay: CellKey impedance assay, agonist
Type: cell-based
Details: morphine up to 10^−5 M, no OT, partial agonist, EC50 n.d.

T1 sequence (P41143 whole entry, looked up): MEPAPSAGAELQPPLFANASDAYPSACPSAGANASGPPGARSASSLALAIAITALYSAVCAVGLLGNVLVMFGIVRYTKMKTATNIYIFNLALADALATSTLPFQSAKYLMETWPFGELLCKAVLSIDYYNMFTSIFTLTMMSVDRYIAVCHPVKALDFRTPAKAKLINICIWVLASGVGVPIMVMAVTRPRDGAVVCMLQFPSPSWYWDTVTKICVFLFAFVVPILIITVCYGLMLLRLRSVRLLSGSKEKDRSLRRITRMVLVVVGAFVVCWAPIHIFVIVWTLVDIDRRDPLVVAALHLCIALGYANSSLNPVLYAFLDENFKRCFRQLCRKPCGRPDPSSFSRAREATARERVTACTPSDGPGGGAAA

CN1CC[C@]23c4c5ccc(O)c4O[C@H]2[C@@H](O)C=C[C@H]3[C@H]1C5 [morphine]
maximum response (% of SNC80 Emax): 50.6 ± 7.01%
